Test results reported in patent publication US7674795B2, “Fluorene derivatives, composition containing said derivatives and the use thereof” (Aventis Pharma SA, priority 2005, dated 2010).
Structures can show the parent of a compound that is named as a salt.

Biological target: Hsp82 (Saccharomyces cerevisiae, UniProt P02829)
Test: PK/LDH enzyme coupling test of the ATPase activity of Hsp82 (NADH decrease at 340 nm)
Type: biochemical
Details: 1 μM Hsp82, 250 μM ATP, 37° C., pyruvate kinase/lactate dehydrogenase coupling, read-out: Hsp82 ATPase IC50
From the text: The formation of ADP due to the ATPase activity of Hsp82 was utilized for developing another method of evaluating the enzymatic activity of this enzyme by application of an enzyme coupling system employing pyruvate kinase (PK) and lactate dehydrogenase (LDH). In this spectrophotometric method of the kinetic type, the PK catalyses the formation of ATP and of pyruvate starting from phosphoenol-pyruvate (PEP) and the ADP produced by HSP82. The pyruvate that formed, an LDH substrate, is then converted to lactate in the presence of NADH. In this case, the decrease in the concentration of NADH, measured by the decrease in absorbance at wavelength of 340 nm, is proportional to the concentration of ADP produced by HSP82. […] This mixture is preincubated at 37° C. for 30 min before adding 3.77 units of LDH and 3.77 units of PK. The reaction is started by adding the product to be evaluated, in variable concentrations, and of Hsp82, at a concentration of 1 μM. The enzymatic activity of Hsp82 is then measured continuously in a microplate reader at 37° C., at wavelength of 340 nm. The initial reaction rate is found by measuring the slope of the tangent at the origin of the recorded curve. The enzymatic activity is expressed as μM of ADP formed per minute. The effect of the various products tested is expressed as percentage of inhibition of ATPase activity, using the following codes: • A: […]

Chain of Hsp82 (P02829 whole entry): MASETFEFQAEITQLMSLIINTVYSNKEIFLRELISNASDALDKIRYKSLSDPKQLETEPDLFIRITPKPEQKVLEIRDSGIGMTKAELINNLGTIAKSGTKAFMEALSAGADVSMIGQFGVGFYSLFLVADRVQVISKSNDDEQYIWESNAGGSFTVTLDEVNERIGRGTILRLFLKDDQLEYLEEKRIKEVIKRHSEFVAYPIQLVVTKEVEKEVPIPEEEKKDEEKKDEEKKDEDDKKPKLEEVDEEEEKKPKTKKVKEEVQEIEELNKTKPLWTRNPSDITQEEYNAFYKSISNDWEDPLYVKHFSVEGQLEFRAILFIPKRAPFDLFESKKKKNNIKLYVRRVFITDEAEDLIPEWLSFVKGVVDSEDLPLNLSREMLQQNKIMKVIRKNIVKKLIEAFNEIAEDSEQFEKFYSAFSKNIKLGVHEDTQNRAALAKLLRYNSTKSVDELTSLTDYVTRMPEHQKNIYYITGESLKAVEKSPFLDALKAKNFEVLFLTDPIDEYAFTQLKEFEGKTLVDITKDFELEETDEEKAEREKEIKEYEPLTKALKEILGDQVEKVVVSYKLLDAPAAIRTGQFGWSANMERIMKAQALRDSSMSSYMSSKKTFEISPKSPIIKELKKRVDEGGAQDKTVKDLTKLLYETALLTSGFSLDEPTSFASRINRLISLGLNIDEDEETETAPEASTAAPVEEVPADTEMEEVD

Compound: CC(C)(C)OC(=O)N1CCC(C(=O)NC2c3ccccc3-c3c(-c4nc5ccncc5[nH]4)cccc32)CC1 (racemic) [Example 33, tert-butyl ester of 4-[4-(3H-imidazo[4,5-c]pyridin-2-yl)-9H-fluoren-9(R,S)-ylcarbamoyl]-piperidine-1-carboxylic acid]
- IC50: 1 to 10 µM

Compound: O=C(NC1c2ccccc2-c2c(-c3nc4ccncc4[nH]3)cccc21)c1cccc2cc(O)ccc12 (racemic) [Example 34, hydrochloride of [4-(3H-imidazo[4,5-c]pyridin-2-yl)-9H-fluoren-9(R,S)-yl]amide of 6-hydroxy-naphthalene-1-carboxylic acid]
- IC50: 1 to 10 µM

Compound: O=C(NC1c2ccccc2-c2c(-c3nc4ccncc4[nH]3)cccc21)c1cccc2cnccc12 (racemic) [Example 35, [4-(3H-imidazo[4,5-c]pyridin-2-yl)-9H-fluoren-9(R,S)-yl]amide of isoquinoline-5-carboxylic acid]
- IC50: 10 to 100 µM

Compound: O=C(NC1c2ccccc2-c2c(-c3nc4ccncc4[nH]3)cccc21)C(=O)c1ccoc1 (racemic) [Example 36, 2-furan-3-yl-N-[4-(3H-imidazo[4,5-c]pyridin-2-yl)-9H-fluoren-9(R,S)-yl]-2-oxo-acetamide]
- IC50: 1 to 10 µM

Compound: O=C(Cc1ccncc1)NC1c2ccccc2-c2c(-c3nc4ccncc4[nH]3)cccc21 (racemic) [Example 37, N-[4-(3H-imidazo[4,5-c]pyridin-2-yl)-9H-fluoren-9(R,S))-yl]-2-pyridin-4-yl-acetamide trifluoroacetate]
- IC50: 1 to 10 µM

Compound: O=C(NC1c2ccccc2-c2c(-c3nc4ccncc4[nH]3)cccc21)c1cccc2c1C=CCO2 (racemic) [Example 38, [4-(3H-imidazo[4,5-c]pyridin-2-yl)-9H-fluoren-9(R,S)-yl]amide trifluoroacetate of 2H-1-benzopyran-5-carboxylic acid]
- IC50: 1 to 10 µM

Compound: O=C(NC1c2ccccc2-c2c(-c3nc4ccncc4[nH]3)cccc21)c1cc[nH]n1 (racemic) [Example 39, [4-(3H-imidazo[4,5-c]pyridin-2-yl)-9H-fluoren-9(R,S)-yl]amide trifluoroacetate of 1H-pyrazole-3-carboxylic acid]
- IC50: 1 to 10 µM

Compound: NC(=O)CCC(=O)NC1c2ccccc2-c2c(-c3nc4cnccc4[nH]3)cccc21 (racemic) [Example 40, N-[4-(3H-imidazo[4,5-c]pyridin-2-yl)-9H-fluoren-9(R,S)-yl]-succinamide trifluoroacetate]
- IC50: 1 to 10 µM

Compound: O=C(NC1c2ccccc2-c2c(-c3nc4ccncc4[nH]3)cccc21)c1ccc2[nH]nnc2c1 (racemic) [Example 41, [4-(3H-imidazo[4,5-c]pyridin-2-yl)-9H-fluoren-9(R,S)-yl]amide trifluoroacetate of 1H-benzotriazole-5-carboxylic acid]
- IC50: < 1 µM

Compound: O=C(Cc1n[nH]c(S)n1)NC1c2ccccc2-c2c(-c3nc4ccncc4[nH]3)cccc21 (racemic) [Example 42, N-[4-(3H-imidazo[4,5-c]pyridin-2-yl)-9H-fluoren-9(R,S)-yl]-2-(5-mercapto-4H-1,2,4-triazol-3-yl)-acetamide trifluoroacetate]
- IC50: 1 to 10 µM

Compound: O=C(NC1c2ccccc2-c2c(-c3nc4ccncc4[nH]3)cccc21)c1ccc2[nH]c(=O)[nH]c2c1 (racemic) [Example 43, [4-(3H-imidazo[4,5-c]pyridin-2-yl)-9H-fluoren-9(R,S)-yl]amide of 2-oxo-2,3-dihydro-1H-benzimidazole-5-carboxylic acid]
- IC50: 10 to 100 µM

Compound: O=C(NC1c2ccccc2-c2c(-c3nc4ccncc4[nH]3)cccc21)c1cc(Cl)cc2[nH]cnc12 (racemic) [Example 44, [4-(3H-imidazo[4,5-c]pyridin-2-yl)-9H-fluoren-9(R,S)-yl]amide of 6-chloro-1H-benzimidazole-4-carboxylic acid]
- IC50: 1 to 10 µM

Compound: O=C(NC1c2ccccc2-c2c(-c3nc4ccncc4[nH]3)cccc21)c1ccc2[nH]ncc2c1 (racemic) [Example 45, [4-(3H-imidazo[4,5-c]pyridin-2-yl)-9H-fluoren-9(R,S)-yl]amide of 1H-indazole-5-carboxylic acid]
- IC50: 1 to 10 µM

Compound: O=C(NC1c2ccccc2-c2c(-c3nc4ccncc4[nH]3)cccc21)c1ccc2cc[nH]c2c1 (racemic) [Example 46, [4-(3H-imidazo[4,5-c]pyridin-2-yl)-9H-fluoren-9(R,S)-yl]amide of 1H-indole-6-carboxylic acid]
- IC50: 1 to 10 µM

Compound: O=C(NC1c2ccccc2-c2c(-c3nc4ccncc4[nH]3)cccc21)c1ccncc1 (racemic) [Example 47, N-[4-(3H-imidazo[4,5-c]pyridin-2-yl)-9H-fluoren-9(R,S)-yl]-isonicotinamide]
- IC50: < 1 µM

Compound: O=C(NC1c2ccccc2-c2c(-c3nc4ccncc4[nH]3)cccc21)c1cccnc1 (racemic) [Example 48, N-[4-(3H-imidazo[4,5-c]pyridin-2-yl)-9H-fluoren-9(R,S)-yl]-nicotinamide]
- IC50: 1 to 10 µM

Compound: CC(=O)CCC(=O)NC1c2ccccc2-c2c(-c3nc4ccncc4[nH]3)cccc21 (racemic) [Example 49, hydrochloride of [4-(3H-imidazo[4,5-c]pyridin-2-yl)-9H-fluoren-9(R,S)-yl]amide of 4-oxo-pentanoic acid]
- IC50: 10 to 100 µM

Compound: O=C(NC1c2ccccc2-c2c(-c3nc4ccncc4[nH]3)cccc21)c1cccc(O)c1 (racemic) [Example 50, hydrochloride of 3-hydroxy-N-[4-(3H-imidazo[4,5-c]pyridin-2-yl)-9H-fluoren-9(R,S)-yl]-benzamide]
- IC50: 1 to 10 µM

Compound: O=C(NC1c2ccccc2-c2c(-c3nc4ccncc4[nH]3)cccc21)N1CCOCC1 (racemic) [Example 51, [4-(3H-imidazo[4,5-c]pyridin-2-yl)-9H-fluoren-9(R,S)-yl]amide trifluoroacetate of morpholine-4-carboxylic acid]
- IC50: 1 to 10 µM

Compound: CN(C)c1cccc2c(S(=O)(=O)NC3c4ccccc4-c4c(-c5nc6ccncc6[nH]5)cccc43)cccc12 (racemic) [Example 52, [4-(3H-imidazo[4,5-c]pyridin-2-yl)-9H-fluoren-9(R,S)-yl]amide trifluoroacetate of 5-dimethylamino-naphthalene-1-sulphonic acid]
- IC50: 10 to 100 µM

Compound: O=C(NC1c2ccccc2-c2c(-c3nc4cnccc4[nH]3)cccc21)c1cccc2[nH]ccc12 (racemic) [Example 53, [4-(3H-imidazo[4,5-c]pyridin-2-yl)-9H-fluoren-9(R,S)-yl]amide of 1H-indole-4-carboxylic acid]
- IC50: 1 to 10 µM

Compound: Nc1ccc2c(C(=O)NC3c4ccccc4-c4c(-c5nc6cnccc6[nH]5)cccc43)cccc2c1 (racemic) [Example 54, [4-(3H-imidazo[4,5-c]pyridin-2-yl)-9H-fluoren-9(R,S)-yl]amide of 6-amino-naphthalene-1-carboxylic acid]
- IC50: 1 to 10 µM

Compound: S=C(NC1c2ccccc2-c2c(-c3nc4cnccc4[nH]3)cccc21)c1cccc2ncccc12 (racemic) [Example 55, [4-(3H-imidazo[4,5-c]pyridin-2-yl)-9H-fluoren-9(R,S)-yl]amide trifluoroacetate of quinoline-5-carbothioic acid]
- IC50: < 1 µM

Compound: O=C(NC1c2ccccc2-c2c(-c3nc4cnccc4[nH]3)cccc21)c1ccc[n+]([O-])c1 (racemic) [Example 56, N-[4-(3H-imidazo[4,5-c]pyridin-2-yl)-9H-fluoren-9(R,S)-yl]-1-oxynicotinamide]
- IC50: 1 to 10 µM

Compound: NC(=O)NCC(=O)NC1c2ccccc2-c2c(-c3nc4cnccc4[nH]3)cccc21 (racemic) [Example 58, N-[4-(3H-imidazo[4,5-c]pyridin-2-yl)-9H-fluoren-9(R,S)-yl]-2-ureido-acetamide]
- IC50: 1 to 10 µM

Compound: O=C1CCc2c1cccc2C(=O)NC1c2ccccc2-c2c(-c3nc4cnccc4[nH]3)cccc21 (racemic) [Example 60, [4-(3H-imidazo[4,5-c]pyridin-2-yl)-9H-fluoren-9(R,S)-yl]amide of 1-oxo-indan-4-carboxylic acid]
- IC50: 1 to 10 µM

Compound: O=C(NC1c2ccccc2-c2c(-c3nc4cnccc4[nH]3)cccc21)c1nccc2ccccc12 (racemic) [Example 64, [4-(3H-imidazo[4,5-c]pyridin-2-yl)-9H-fluoren-9(R,S)-yl]amide of isoquinoline-1-carboxylic acid]
- IC50: 10 to 100 µM

Compound: CC(=O)Nc1cc(C(=O)NC2c3ccccc3-c3c(-c4nc5cnccc5[nH]4)cccc32)ccn1 (racemic) [Example 66, 2-acetylamino-N-[4-(3H-imidazo[4,5-c]pyridin-2-yl)-9H-fluoren-9(R,S)-yl]-isonicotinamide]
- IC50: < 1 µM

Compound: O=C(NC1c2ccccc2-c2c(-c3nc4cnccc4[nH]3)cccc21)c1ccnc2ccccc12 (racemic) [Example 67, [4-(3H-imidazo[4,5-c]pyridin-2-yl)-9H-fluoren-9(R,S)-yl]amide of quinoline-4-carboxylic acid]
- IC50: < 1 µM

Compound: ON=C1c2ccccc2-c2c1cccc2-c1nc2ccccc2[nH]1 (racemic) [Example 68, 4-(1H-benzimidazol-2-yl)-fluoren-9-one oxime (Z,E)]
- IC50: 10 to 100 µM

Compound: ON=C1c2ccccc2-c2c1cccc2-c1nc2ccc(F)cc2[nH]1 (racemic) [Example 70, 4-(6-fluoro-1H-benzimidazol-2-yl)-fluoren-9-one oxime (Z,E)]
- IC50: 1 to 10 µM
